Entries after “also recorded” stand apart in the source; their conditions may differ. Like-named read-outs stand apart in the source and are kept apart here.
How the values were obtained:
adenylate cyclase [1] = settings: literature; cited from earlier work
P-glycoprotein = P-glycoprotein (Homo sapiens, UniProt P08183)
adenylate cyclase [2] = assay: Photolabelling of partially purified bovine brain adenylate cyclase, SDS gel electrophoresis; format: binding
Description: (§1) Derivative 20 (6-AIPPS-Fsk) is incubated with partially purified preparations of bovine brain adenylate cyclase, photolyzed, and then the radioactive proteins are analyzed by SDS gel electrophoresis. […] 6-AIPPS-Fsk can also label adenylate cyclase in crude membranes. 6-AIPPS-Fsk is incubated with bovine brain membranes, photolyzed, and the radioactive proteins are analyzed by SDS gel electrophoresis.

adenylate cyclase [3] = assay: Photolabelling of bovine brain membranes, SDS gel electrophoresis; format: binding
Description: as §1

glucose transporter [4] = molecular target: T1, glucose transporter (Homo sapiens, UniProt P11166); assay: Filtration binding assay, ^125 I-labelled derivative 8 (7-^125 I-HPP-Fsk) to human red blood cell membranes
T1 construct: Crude membranes from human red blood cells; from tissue; host or cells: human red blood cells, membranes
T1 sequence (P11166 1-492): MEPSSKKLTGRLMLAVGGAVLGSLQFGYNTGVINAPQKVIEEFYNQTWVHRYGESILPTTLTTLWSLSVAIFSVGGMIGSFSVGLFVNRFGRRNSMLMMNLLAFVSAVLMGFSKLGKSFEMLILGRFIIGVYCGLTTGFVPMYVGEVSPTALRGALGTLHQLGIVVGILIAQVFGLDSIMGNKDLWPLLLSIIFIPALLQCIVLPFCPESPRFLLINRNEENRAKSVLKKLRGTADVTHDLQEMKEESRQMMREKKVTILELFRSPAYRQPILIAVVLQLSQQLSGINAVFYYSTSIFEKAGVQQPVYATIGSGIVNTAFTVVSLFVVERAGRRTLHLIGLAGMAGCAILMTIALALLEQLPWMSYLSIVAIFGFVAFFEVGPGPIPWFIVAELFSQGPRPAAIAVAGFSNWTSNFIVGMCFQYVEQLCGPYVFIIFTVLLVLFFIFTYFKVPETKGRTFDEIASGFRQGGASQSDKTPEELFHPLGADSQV
Description: Binding of 7-^125 IHPP-Fsk to Membranes--Crude membranes from human red blood cells were incubated for 60 minutes at 20° C. with 20,000 cpm of 7-^125 IHPP-Fsk. […] The incubations were carried out at 20° C. for 60 minutes in 12×75 glass test tubes in a total volume of 0.4 mL 50 mM Tris-HCl buffer, pH 7.4. The assay was terminated by the addition of 4 mL of cold Tris-HCl buffer to the tubes at rapid filtration over Whatman GF/C filters using a Brandel cell harvester. The assay was terminated as described above and the filters counted in a gamma counter. The nonspecific binding was calculated as the amount of label not displaced by 20 μM forskolin.

glucose transporter [5] = assay: Binding of 7-^125 I-HPP-Fsk to rat heart
From the text: (§2) 7-^125 I-HPP-Fsk also binds with high affinity to other tissues including bovine brain, rat heart, rat muscle, and human platelets. The binding of 7-^125 I-HPP-Fsk to these tissues is inhibited by D-glucose and cytochalasin B. Therefore, 7-^125 I-HPP-Fsk binds with high affinity to the glucose transporter in diverse tissues.

glucose transporter [6] = assay: Binding of 7-^125 I-HPP-Fsk to rat muscle
From the text: as §2

glucose transporter [7] = assay: Binding of 7-^125 I-HPP-Fsk to bovine brain
From the text: as §2

glucose transporter [8] = molecular target: T2, glucose transporter (Homo sapiens, UniProt P11169); assay: Binding of 7-^125 I-HPP-Fsk to human platelets
T2 construct: other tissues including bovine brain, rat heart, rat muscle, and human platelets; from tissue; host or cells: human platelets
T2 sequence (P11169 1-496): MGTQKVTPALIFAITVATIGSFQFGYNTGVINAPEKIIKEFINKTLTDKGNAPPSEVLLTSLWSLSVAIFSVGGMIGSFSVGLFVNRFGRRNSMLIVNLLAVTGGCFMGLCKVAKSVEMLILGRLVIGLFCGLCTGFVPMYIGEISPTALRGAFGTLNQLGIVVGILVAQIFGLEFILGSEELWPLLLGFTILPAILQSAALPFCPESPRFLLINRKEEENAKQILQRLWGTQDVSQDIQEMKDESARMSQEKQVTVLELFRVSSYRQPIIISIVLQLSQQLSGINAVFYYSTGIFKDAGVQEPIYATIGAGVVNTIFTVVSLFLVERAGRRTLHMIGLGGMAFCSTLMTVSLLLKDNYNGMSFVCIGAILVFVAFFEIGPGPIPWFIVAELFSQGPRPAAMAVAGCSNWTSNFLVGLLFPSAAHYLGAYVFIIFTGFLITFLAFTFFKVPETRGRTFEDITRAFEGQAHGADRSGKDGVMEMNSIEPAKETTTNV
From the text: as §2

[9] = mildly basic conditions; literature; cited from earlier work
adenylate cyclase [10] = settings: literature; cited from earlier work; remark: listed apart in the source
Water solubility = format: physicochemical; settings: relative to forskolin
[11] = tested on: bovine brain adenylate cyclase; assay: Activation of bovine brain adenylate cyclase; format: biochemical; settings: relative to forskolin
glucose transporter [12] = molecular target: T1, glucose transporter; assay: Photolabelling of human red blood cell membranes, SDS gel electrophoresis; format: binding
Description: Derivative 9 (7-AIPPS-Fsk) is incubated with human red blood cell membranes, photolyzed, and then the radioactive proteins were analyzed by SDS gel electrophoresis.

adenylate cyclase [13] = assay: Filtration binding assay, ^125 I-labelled derivative 19 (6-^125 I-HPP-Fsk) to bovine brain membranes; settings: bovine brain membranes, 20° C., 60 min
From the text: Derivative 19 (6-^125 I-HPP-Fsk) was used to develop a binding assay for adenylate cyclase (Example 4). […] Therefore, a filtration assay can be used to separate the bound from free ligand and determine the amount of high affinity binding. […] Analogs of forskolin that activate adenylate cyclase inhibit the binding of 6-^125 I-HPP-Fsk to membranes. The ability of an agent to inhibit 6-^125 I-HPP-Fsk binding to membranes is therefore indicative of its ability to stimulate adenylate cyclase.
Binding of 6-^125 I-HPP-Fsk to Membranes--Crude membranes from bovine brain were incubated for 60 minutes at […] 20° C. with 20,000 cpm of 6-^125 I-HPP-Fsk. Binding equilibrium was reached by 45 minutes and was constant for at least 2 hours (data not shown). The incubations were carried out at 20° C. for 60 minutes in 12×75 glass test tubes in a total volume of 0.4 mL […] Tris-HCl buffer, pH 7.4. The membranes (0.40 mg/tube) were incubated in the presence of 5 mM MgCl2 and 10 mM NaF. The assay was terminated by the addition of 5 mL of cold Tris-HCl buffer to the tubes and rapid filtration over Whatman GF/C filters using a Brandel cell harvester. The assay was terminated as described above and the filters counted in a gamma counter. The nonspecific binding was calculated as the amount of label not displaced by 20 uM forskolin. The non specific binding was about 20% of the total bound.

P-glycoprotein, sequence (P08183 whole entry): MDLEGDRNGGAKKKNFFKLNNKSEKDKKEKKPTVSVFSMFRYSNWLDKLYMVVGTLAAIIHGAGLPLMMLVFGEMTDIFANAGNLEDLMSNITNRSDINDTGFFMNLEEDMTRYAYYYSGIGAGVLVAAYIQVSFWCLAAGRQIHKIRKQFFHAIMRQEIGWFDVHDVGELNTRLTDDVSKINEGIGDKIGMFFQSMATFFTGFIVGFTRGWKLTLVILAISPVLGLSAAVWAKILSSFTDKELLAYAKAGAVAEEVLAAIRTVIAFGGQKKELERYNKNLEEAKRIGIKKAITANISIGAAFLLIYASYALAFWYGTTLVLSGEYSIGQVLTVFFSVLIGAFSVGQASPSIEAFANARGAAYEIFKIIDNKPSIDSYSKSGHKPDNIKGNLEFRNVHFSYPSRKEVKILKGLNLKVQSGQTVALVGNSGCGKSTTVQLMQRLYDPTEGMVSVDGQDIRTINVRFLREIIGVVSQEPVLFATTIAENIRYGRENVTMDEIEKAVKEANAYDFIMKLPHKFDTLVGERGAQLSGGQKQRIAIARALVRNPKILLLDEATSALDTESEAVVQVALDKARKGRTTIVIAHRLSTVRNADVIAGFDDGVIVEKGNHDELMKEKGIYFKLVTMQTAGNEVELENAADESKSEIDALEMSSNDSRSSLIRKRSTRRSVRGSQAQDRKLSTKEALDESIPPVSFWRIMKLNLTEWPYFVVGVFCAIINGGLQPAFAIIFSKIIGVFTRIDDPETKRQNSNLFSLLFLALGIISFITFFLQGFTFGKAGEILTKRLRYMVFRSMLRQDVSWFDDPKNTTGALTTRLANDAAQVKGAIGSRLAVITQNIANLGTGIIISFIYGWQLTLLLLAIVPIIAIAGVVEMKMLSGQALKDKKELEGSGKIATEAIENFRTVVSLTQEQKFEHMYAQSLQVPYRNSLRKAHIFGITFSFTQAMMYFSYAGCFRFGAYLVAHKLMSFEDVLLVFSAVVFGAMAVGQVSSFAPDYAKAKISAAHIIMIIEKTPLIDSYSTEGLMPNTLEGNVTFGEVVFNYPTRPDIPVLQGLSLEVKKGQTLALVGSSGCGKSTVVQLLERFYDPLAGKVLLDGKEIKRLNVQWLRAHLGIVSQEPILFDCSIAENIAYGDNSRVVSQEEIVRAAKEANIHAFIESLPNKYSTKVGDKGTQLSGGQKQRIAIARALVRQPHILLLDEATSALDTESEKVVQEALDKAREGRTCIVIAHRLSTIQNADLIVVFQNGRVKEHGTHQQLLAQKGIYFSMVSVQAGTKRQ

## C=C[C@@]1(C)CC(=O)[C@]2(O)[C@@]3(C)[C@@H](O)CCC(C)(C)[C@@H]3[C@H](OC(C)=O)[C@H](O)[C@@]2(C)O1 [6-acetyl-7-desacetylforskolin]
Adenylate cyclase [1]
  activation of adenylate cyclase: less potent than forskolin

## C=C[C@@]1(C)CC(O)[C@]2(O)[C@@]3(C)[C@@H](O)CCC(C)(C)[C@@H]3[C@H](O)[C@H](OC(C)=O)[C@@]2(C)O1 (stereo partly drawn) [11β-hydroxyforskolin]
Adenylate cyclase [1]
  activation of adenylate cyclase: less potent than forskolin

## C=C[C@@]1(C)CC(=O)[C@]2(O)[C@@]3(C)[C@@H](O)CCC(C)(C)[C@@H]3[C@H](O)[C@H](OC(=O)CC)[C@@]2(C)O1 [7-desacetyl-7-propionylforskolin]
Adenylate cyclase [1]
  activation of adenylate cyclase: active at adenylate cyclase

## C=C[C@@]1(C)CC(=O)[C@]2(O)[C@@]3(C)[C@@H](O)CCC(C)(C)[C@@H]3[C@H](OC(=O)NCCNC(=O)CCc3ccc(N=[N+]=[N-])c([125I])c3)[C@H](OC(C)=O)[C@@]2(C)O1 [Derivative 20]
P-glycoprotein
  photolabelling of P-glycoprotein: labelled
Adenylate cyclase [2]
  photolabelling of adenylate cyclase: covalently incorporated into the adenylate cyclase
Adenylate cyclase [3]
  photolabelling of adenylate cyclase: labels the adenylate cyclase in bovine brain membranes

## C=C[C@@]1(C)CC(=O)[C@]2(O)[C@@]3(C)[C@@H](O)CCC(C)(C)[C@@H]3[C@H](O)[C@H](O)[C@@]2(C)O1 [7-desacetylforskolin]
Adenylate cyclase [1]
  activation of adenylate cyclase: less potent than forskolin

## OC[C@@H]1OC(O)[C@@H](O)[C@H](O)[C@H]1O (stereo partly drawn) [L-glucose]
Glucose transporter [4]
  inhibition of 7-^125 I-HPP-Fsk binding: not L-glucose

## C=C[C@@]1(C)CC(=O)[C@]2(O)[C@@]3(C)[C@@H](O)CCC(C)(C)[C@@H]3[C@H](O)[C@H](OC(=O)NCCNC(=O)CCc3ccc(O)c([125I])c3)[C@@]2(C)O1 [Derivative 8]
Glucose transporter [5]
  binding affinity: high affinity
Glucose transporter [6]
  binding affinity: high affinity
Glucose transporter [7]
  binding affinity: high affinity
Glucose transporter [4]; 20° C.
  time binding was constant: at least 2 hours
  time to binding equilibrium: ≤ 45 min
Glucose transporter [4]; human red blood cell glucose transporter, listed as 7-^125 I-HPP-Fsk
  binding affinity / selectivity: binds to the human red blood cell glucose transporter with high affinity; also recorded: will not detect adenylate cyclase
Glucose transporter [4]; label not displaced by 20 μM forskolin
  nonspecific binding (of total bound): about 20%
Glucose transporter [4]; membranes from human red blood cells, read-out: affinity of 7-^125 I-HPP-Fsk
  Kd: 30 nM
Glucose transporter [8]
  binding affinity: high affinity

## O=C(CCc1ccc(O)cc1)c1c(O)cc(O)cc1O[C@@H]1O[C@H](CO)[C@@H](O)[C@H](O)[C@H]1O [phloridzin]
Glucose transporter [4]; human red blood cell membranes
  inhibition of 7-^125 I-HPP-Fsk binding: relatively potent

## C=C[C@@]1(C)CC(=O)[C@]2(O)[C@@]3(C)[C@@H](O)CCC(C)(C)[C@@H]3[C@H](O)[C@H](OC(=O)CCl)[C@@]2(C)O1 [7-desacetyl-7-chloroacetylforskolin]
[9]
  susceptibility to hydrolysis and rearrangement: susceptible to hydrolysis and rearrangement under mildly basic conditions
Adenylate cyclase [10]
  block of forskolin binding site: block the forskolin binding site on adenylate cyclase

## C=C[C@@]1(C)CC(=O)[C@]2(O)[C@@]3(C)[C@@H](O)CCC(C)(C)[C@@H]3[C@H](OC(=O)NCCN)[C@H](OC(C)=O)[C@@]2(C)O1 [Compound 4, 6-aminoethylcarbamylforskolin]
Water solubility
  water solubility: enhanced water solubility
[11]
  extent of stimulation of adenylate cyclase: stimulate adenylate cyclase to a greater extent than forskolin

## CC[C@@]1(C)CC(=O)[C@]2(O)[C@@]3(C)[C@@H](O)CCC(C)(C)[C@@H]3[C@H](O)[C@H](OC(C)=O)[C@@]2(C)O1 [14,15-dihydroforskolin]
Adenylate cyclase [1]
  activation of adenylate cyclase: less potent than forskolin

## C=C[C@@]1(C)CC(=O)[C@]2(O)[C@@]3(C)[C@@H](O)CCC(C)(C)[C@@H]3[C@H](O)[C@H](OC(=O)CBr)[C@@]2(C)O1 [7-descacetyl-7-bromoacetylforskolin]
[9]
  susceptibility to hydrolysis and rearrangement: susceptible to hydrolysis and rearrangement under mildly basic conditions
Adenylate cyclase [10]
  block of forskolin binding site: block the forskolin binding site on adenylate cyclase

## C=C[C@@]1(C)CC(=O)[C@]2(O)[C@@]3(C)[C@@H](O)CCC(C)(C)[C@@H]3[C@H](OC(=O)NCCNC(=O)CCc3ccc(O)cc3)[C@H](OC(C)=O)[C@@]2(C)O1 [Derivative 21]
P-glycoprotein
  inhibition of labelling by 6-AIPPS-Fsk: more potent at inhibiting the labelling by 6-AIPPS-Fsk than forskolin

## C=C[C@@]1(C)CC(=O)[C@]2(O)[C@@]3(C)[C@@H](O)CCC(C)(C)[C@@H]3[C@H](O)[C@H](OC(=O)NCCNC(=O)CCc3ccc(N=[N+]=[N-])c([125I])c3)[C@@]2(C)O1 [Derivative 9]
Glucose transporter [12]; listed as 7-AIPPS-Fsk
  photolabelling of glucose transporter: labels the glucose transporter; also recorded: more potent at labelling the glucose transporter in human red blood cell membranes than 6-AIPPS-Fsk
Adenylate cyclase [3]
  photolabelling of adenylate cyclase: less efficient at labelling the adenylate cyclase than the 6-AIPPS-Fsk

## OC[C@H]1OC(O)[C@H](O)[C@@H](O)[C@@H]1O (stereo partly drawn) [D-glucose]
Adenylate cyclase [13]
  inhibition of 6-^125 I-HPP-Fsk binding: not inhibited
Glucose transporter [5]
  inhibition of 7-^125 I-HPP-Fsk binding: inhibited
Glucose transporter [6]
  inhibition of 7-^125 I-HPP-Fsk binding: inhibited
Glucose transporter [12]
  inhibition of labelling by 7-AIPPS-Fsk: inhibited
Glucose transporter [7]
  inhibition of 7-^125 I-HPP-Fsk binding: inhibited
Glucose transporter [4]
  inhibition of 7-^125 I-HPP-Fsk binding: inhibited; also recorded: inhibition of binding
Glucose transporter [8]
  inhibition of 7-^125 I-HPP-Fsk binding: inhibited

Reference: patent publication US5350864A, “Aminoalkylcarbamyl derivatives of forskolin as intermediates for the synthesis of useful forskolin derivatives” (The United States of America as represented by the …, priority 1990, dated 1994)
